Columns and labels:
[1] = test system: dogs; details: approximately 10 μg/kg per minute continuous intravenous infusion; cited from earlier work
[2] = target: peripheral DA2 dopaminergic receptors (Oryctolagus cuniculus, UniProt G1T1Q0); test: Peripheral DA2 dopaminergic activity in electrically stimulated rabbit rectococcygeus muscle; details: for IC50: read-out: IC50, 50% inhibition of the electrically induced contraction
Text: The activity of CHF 1024 and CHF 1035 on peripheral DA2 dopaminergic receptors has been tested in the electrically stimulated rabbit rectococcygeus muscle.

[3] = target: α2-adrenergic receptors; test: α2-adrenergic activity in isolated neuronally-stimulated rat vas deferens; details: for IC50: isolated neuronally-stimulated rat vas deferens, read-out: IC50, 50% inhibition of the electrically induced contraction
[4] = target: T1, α2 adrenergic receptors (Homo sapiens, UniProt P08913); test: α2 adrenergic receptor binding, [3H]-rauwolscine, human platelets
T1 construct: from tissue; host or cells: human platelets
T1 sequence (P08913 1-465): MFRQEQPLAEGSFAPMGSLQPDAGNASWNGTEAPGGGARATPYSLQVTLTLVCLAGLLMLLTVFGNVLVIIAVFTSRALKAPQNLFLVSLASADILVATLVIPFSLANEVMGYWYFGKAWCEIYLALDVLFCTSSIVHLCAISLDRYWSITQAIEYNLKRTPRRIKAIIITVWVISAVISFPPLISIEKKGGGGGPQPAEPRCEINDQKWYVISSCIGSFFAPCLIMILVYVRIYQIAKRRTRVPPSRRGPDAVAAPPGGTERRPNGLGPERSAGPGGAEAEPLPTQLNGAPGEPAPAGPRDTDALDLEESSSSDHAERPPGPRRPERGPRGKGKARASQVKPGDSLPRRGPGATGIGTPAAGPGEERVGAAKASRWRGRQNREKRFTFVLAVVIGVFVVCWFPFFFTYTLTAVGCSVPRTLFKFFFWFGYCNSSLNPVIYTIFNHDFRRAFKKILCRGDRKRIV
Text: (§1) The antagonist [^3H]-rauwolscine was used as marker of the receptor, being its binding reversible, saturable and specific.

[5] = test system: anesthetized rats; test: In vivo cardiovascular effects in anesthetized rats; design: species or system rat; details: for mean arterial pressure, change from basal value: 0.69 µg/kg/min i.v.
Method: Male albino rats (Sprague Dawley, 350-400 g) were anesthetized by sodium pentobarbital (60 mg/kg) and maintained by i.v. infusion (6 mg/h). The trachea was cannulated to facilitate spontaneous respiration and body temperature was maintained at 37 C. Homoiothermic Blanket Control System (Harvard, England).
The right femoral artery was cannulated for arterial blood pressure measurement and left jugular vein or duodenum were cannulated for drug administration. Mean arterial pressure and heart rate were continuously monitored by pressure transducer and medium gain amplifier triggered by the ECG signal, respectively. […]
CHF 1035 was administered intraduodenally (1 mg/kg).
The response to […] was determined in the absence and in the presence of the selective β2-adrenoceptor antagonist ICI 118.551 (0.2 mg/kg i.v.) and the selective DA2-dopaminergic antagonist domperidone (0 3 mg/kg i.v.) both alone and in combination. The antagonists were administered 10 min before the i.d. drug administration.

[6] = test system: dopamine receptor; details: cited from earlier work
[7] = test system: α2 adrenergic receptors; test: α2 adrenergic receptor binding, [3H]-rauwolscine, rat cerebral cortex; details: for IC50: rat cerebral cortex, read-out: IC50, 50% inhibition of [3H]-rauwolscine specific binding
Method: The affinity of CHF 1024 and CHF 1035 for α2, adrenergic receptors was tested on human platelets and on rat cerebral cortex.
as §1
Values are expressed as IC50=molar concentration of drug required for 50% inhibition of [^3H]-rauwolscine specific binding.

[8] = target: T2, peripheral DA2 dopaminergic receptors (Bos taurus, UniProt P20288); test: Peripheral DA2 dopaminergic binding test, [3H](-)sulpiride, bovine adrenal cortex
T2 construct: peripheral DA2 dopaminergic receptors was tested on bovine adrenal cortex; from tissue; host or cells: bovine adrenal cortex
T2 sequence (P20288 whole entry): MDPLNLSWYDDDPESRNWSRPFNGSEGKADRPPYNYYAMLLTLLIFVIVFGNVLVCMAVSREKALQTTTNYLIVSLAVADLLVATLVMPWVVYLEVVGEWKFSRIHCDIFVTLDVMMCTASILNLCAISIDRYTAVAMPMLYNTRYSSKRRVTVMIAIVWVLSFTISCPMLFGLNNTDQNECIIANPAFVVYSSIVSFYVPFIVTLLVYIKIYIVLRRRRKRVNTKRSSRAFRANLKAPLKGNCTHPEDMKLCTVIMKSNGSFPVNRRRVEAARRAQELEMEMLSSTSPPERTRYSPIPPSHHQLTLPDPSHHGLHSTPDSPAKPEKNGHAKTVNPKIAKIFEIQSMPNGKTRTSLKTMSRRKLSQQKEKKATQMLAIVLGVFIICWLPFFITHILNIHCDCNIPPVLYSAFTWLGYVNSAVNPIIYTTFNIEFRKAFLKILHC
Method: The affinity of CHF 1024 for peripheral DA2 dopaminergic receptors was tested on bovine adrenal cortex evaluating its effect on the interaction of [^3H](-)sulpiride with the specific binding sites of this system.

[9] = test system: rats with left ventricular dysfunction; test: Rat model of left ventricular dysfunction after coronary artery occlusion, urine catecholamine excretion; type: in vivo
Method: Myocardial infarction (MI) was induced by left coronary artery ligation in 134 rats, and 6 were left unoperated. After two months, the survived animals with ECG evidence of MI entered a four-week treatment phase. They were randomly allocated to one of the following treatments: 1) delapril 6 mg.kg^−1.day^−1, (n=12), 2) delapril 6 mg.kg^−1.day^−1 and CHF 1024 0.33 mg.kg^−1.day^−1(n=13), 3) vehicle (0.05% ascorbic acid; n=12).
Delapril was dissolved in drinking water at the final concentration of 0.043 mg/ml. The delapril solutions were prepared, freshly every third day and their concentration adjusted to body weight every 15 days to obtain an average dose of 6 mg.kg^−1.day^−1.
CHF 1024 was administered continuously for four weeks through osmotic minipumps implanted subcutaneously behind the neck.
Concentrated solutions of CHF 1024 were dissolved in 10% ascorbic acid in distilled water at a final concentration of 40 mM (mean delivery rate 0.33 mg.kg^−1.day^−1).
At week 4 of treatment, the rats were placed in individual metabolic cages to collect 24-hour urine for measuring catecholamine excretion. […] Only rats with mean infarct size >12%, histologically determined in 6-10 serial cross-sections as percentage of LV area, were analyzed. The numbers of animals analyzed in each experimental group were 6 (vehicle), 6 (delapril alone), 8 (delapril and CHF 1024) and 6 non-operated.

Sequence of peripheral DA2 dopaminergic receptors (Oryctolagus cuniculus, UniProt G1T1Q0) (G1T1Q0 1-443): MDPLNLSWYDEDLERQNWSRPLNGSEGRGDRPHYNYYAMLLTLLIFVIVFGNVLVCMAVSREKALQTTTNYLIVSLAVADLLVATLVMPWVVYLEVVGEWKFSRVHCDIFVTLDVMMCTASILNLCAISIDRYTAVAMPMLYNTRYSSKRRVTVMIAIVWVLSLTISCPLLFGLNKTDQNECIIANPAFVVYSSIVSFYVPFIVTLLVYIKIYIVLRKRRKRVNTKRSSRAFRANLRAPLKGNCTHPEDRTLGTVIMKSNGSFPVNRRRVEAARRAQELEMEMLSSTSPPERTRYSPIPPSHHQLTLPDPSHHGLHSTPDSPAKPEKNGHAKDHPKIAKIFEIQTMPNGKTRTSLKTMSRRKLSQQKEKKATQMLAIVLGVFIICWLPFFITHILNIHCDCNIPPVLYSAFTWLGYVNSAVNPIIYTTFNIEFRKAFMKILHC

For Br.CNC1CCc2c(ccc(O)c2O)C1 (stereo not drawn) [5,6-dihydroxy-2-methylaminotetralin hydrobromide], the coronary blood flow [1] is listed as “substantial increase”.

With CNC1CCc2c(ccc(O)c2O)C1 (stereo not drawn) [CHF 1024, 5,6-dihydroxy-2-methylaminotetralin] the “effect in presence of selective DA2-antagonist domperidone” value [2] was “competitively antagonized”, the “more potent than dopamine” value [2] was “approximately 3 times” and the IC50 [2] was 37.3 nM. The IC50 [3] was 270 nM, the “more potent than dopamine” value ([3]; rat vas deferens) was “about 20 times” and the IC50 ([4]; human platelets, read-out: IC50, 50% inhibition of [3H]-rauwolscine specific binding) was 339 nM. The “affinity higher than dopamine” value ([4]; platelets) was 9 times, the “mean arterial pressure, change from basal value” (from here on “mean arterial pressure, change”) ([5]; 5 min after infusion start) was −24.0 and the “mean arterial pressure, change” value ([5]; 5 min after infusion stop) was −12.7. For the same molecule, the “mean arterial pressure, change” value ([5]; 30 min after infusion start) was −25.7, the “mean arterial pressure, change” value ([5]; 30 min after infusion stop) was −6.7 and the “effect on mean arterial pressure” value ([5]; intravenous administration, persists after infusion discontinuation) was “dose-dependent reduction”. For the same molecule, the heart rate ([5]; intravenous infusion, in spite of marked hypotension) was “no increase”, the “dopamine receptor agonist activity in relaxing splenic artery strips” value [6] was “inactive” and the “affinity higher than dopamine” value ([7]; cerebral cortex) was 15 times. The IC50 [7] was 262 nM, the IC50 [8] was 21 nM and the “affinity for DA2 receptors higher than dopamine” value ([8]; bovine adrenal cortex) was 11 times. The “urine norepinephrine excretion, reduced with respect to the vehicle group” value ([9]; CHF 1024 0.33 mg.kg^−1.day^−1 s.c. minipump added to delapril 6 mg.kg^−1.day^−1, week 4) was 40%.

With NCCc1ccc(O)c(O)c1 [DOPAMINE, dopamine, reference compound] the IC50 [2] was 99.3 nM, the IC50 [3] was 4910 nM and the IC50 [7] was 4060 nM.

For CCOC(=O)[C@H](CCc1ccccc1)N[C@@H](C)C(=O)N(CC(=O)O)C1Cc2ccccc2C1 [delapril, reference compound], the urine norepinephrine excretion ([9]; delapril alone 6 mg.kg^−1.day^−1, week 4, 24-hour urine) was “unaffected”.
